Measurements from patent US7795299B2, “Neo-tanshinlactone and analogs as potent and selective anti-breast cancer agents” (The University of North Carolina at Chapel Hill, priority 2004, dated 2010).
Values after ≈ are worked out from the molar mass of the structure shown.

Assays:
[1] = system: ZR-75-1 (estrogen receptor positive breast cancer); assay: In vitro anticancer assay (SRB), ZR-75-1; type: cell-based, human; conditions: Homo sapiens, ZR-75-1, 72 h, concentration that reduces cell growth by 50%, 3 days in culture, read-out: ED50, ZR-75-1 (ER+)
Method: (§1) All stock cultures were grown in T-25 flasks. Freshly trypsinized cell suspensions were seeded in 96-well microtiter plates at densities of 1500-7500 cells per well with compounds added from DMSO-diluted stock. After 3 days in culture, attached cells were fixed with cold 50% trichloroacetic acid and then stained with 0.4% sulforhodamine B (SRB). The absorbency at 562 nm was measured using a microplate reader after solubilizing the bound dye.
as §1, with “Biological assay. All” for “All”, “cultures are” for “cultures were”, “96-well microtitre” for “96-well microtiter”

[2] = system: MCF-7 (estrogen receptor positive breast cancer); assay: In vitro anticancer assay (SRB), MCF-7; type: cell-based, human; conditions: for IC50: MCF7, 72 h, read-out: ED50, MCF-7 (ER+)
Method: as §1
as §1, with “Biological assay. All” for “All”, “cultures are” for “cultures were”, “96-well microtitre” for “96-well microtiter”

[3] = system: HS 587-T (estrogen receptor negative breast cancer); assay: In vitro anticancer assay (SRB), HS 587-T; type: cell-based, human; conditions: concentration that reduces cell growth by 50%, 3 days in culture, printed HS587-1 in Table 4
Method: as §1
as §1, with “Biological assay. All” for “All”, “cultures are” for “cultures were”, “96-well microtitre” for “96-well microtiter”

[4] = system: MDA-MB-231 (estrogen receptor negative breast cancer); assay: In vitro anticancer assay (SRB), MDA-MB-231; type: cell-based, human; conditions: concentration that reduces cell growth by 50%, 3 days in culture, SRB; for IC50: Homo sapiens, MDA-MB-231, 72 h, read-out: ED50, MDA-MB-231 (ER−)
Method: as §1
as §1, with “Biological assay. All” for “All”, “cultures are” for “cultures were”, “96-well microtitre” for “96-well microtiter”

[5] = system: A431 (EGFR over-expressing skin cancer); assay: In vitro anticancer assay (SRB), A431; type: cell-based, human; conditions: Homo sapiens, A-431, 72 h; concentration that reduces cell growth by 50%, 3 days in culture, SRB; read-out: ED50, A431
Method: (§2) In Vitro Anticancer Assay (Nakanishi, Y. et al., J. Med. Chem. 2003, 46, 3185). All stock cultures were grown in T-25 flasks. Freshly trypsinized cell suspensions were seeded in 96-well microtiter plates at densities of 1500-7500 cells per well with compounds added from DMSO-diluted stock. After 3 days in culture, attached cells were fixed with cold 50% trichloroacetic acid and then stained with 0.4% sulforhodamine B (SRB). The absorbency at 562 nm was measured using a microplate reader after solubilizing the bound dye. The mean ED50 is the concentration of agent that reduces cell growth by 50% under the experimental conditions and is the average from at least three independent determinations that were reproducible and statistically significant (FIG. 2). The following human tumor cell lines were used in the assay: A549 (non small cell lung cancer), MCF-7 (estrogen receptor positive breast cancer), ZR-75-1 (estrogen receptor positive breast cancer), MDA-MB-231 (estrogen receptor negative breast cancer), HS 587-T (estrogen receptor negative breast cancer), SK− BR-3 (HER-2-overexpressing breast cancer), A431 (EGFRoverexpressing skin cancer), LN-CaP (AR-dependent prostate cancer), SW620 (colon cancer), PC-3 (prostate cancer), KB (nasopharyngeal carcinoma), KB-VIN (vincristine-resistant KB subline). All cell lines were obtained from the Lineberger Comprehensive Cancer Center (UNC-CH) or from ATCC (Rockville, Md.) and were cultured in RPMI-1640 medium supplemented with 25 mMHEPES, 0.25% sodium bicarbonate, 10% fetal bovine serum, and 100 μg/mL kanamycin.
(§3) Biological assay. All stock cultures are grown in T-25 flasks. Freshly trypsinized cell suspensions were seeded in 96-well microtitre plates at densities of 1500-7500 cells per well with compounds added from DMSO-diluted stock. After 3 days in culture, attached cells were fixed with cold 50% trichloroacetic acid and then stained with 0.4% sulforhodamine B (SRB). The absorbency at 562 nm was measured using a microplate reader after solubilizing the bound dye. The mean ED50 is the concentration of agent that reduces cell growth by 50% under the experimental conditions and is the average from at least three independent determinations that were reproducible and statistically significant. The following human tumor cell lines were used in the assay: A549 (non-small cell lung cancer), MCF-7 (estrogen receptor positive breast cancer), ZR-75-1 (estrogen receptor positive breast cancer), MDA MB-231 (estrogen receptor negative breast cancer), HS 587-T (estrogen receptor negative breast cancer), SK-BR-3 (estrogen receptor negative, HER-2 over-expressing breast cancer), A431 (EGFR over-expressing skin cancer), LN-CaP (AR-dependent prostate cancer), SW620 (colon cancer), PC-3 (prostate cancer), KB (nasopharyngeal carcinoma), KB-VIN (Vincristine resistant KB subline). All cell lines were obtained from the Lineberg Cancer Center (UNC-CH) or from ATCC (Rockville, Md.) and were cultured in RPMI-1640 medium supplemented with 25 mM HEPES, 0.25% sodium bicarbonate, 10% fetal bovine serum, and 100 μg/mL kanamycin.

SW620 (colon cancer) = assay: In vitro anticancer assay (SRB), SW620; type: cell-based, human; conditions: Homo sapiens, SW-620, 72 h; concentration that reduces cell growth by 50%, 3 days in culture, SRB; read-out: ED50, SW620
Method: as §2, §3

[6] = system: SK-BR-3 (HER-2-overexpressing breast cancer); assay: In vitro anticancer assay (SRB), SK-BR-3; type: cell-based, human; conditions: Homo sapiens, SK-BR-3, 72 h; concentration that reduces cell growth by 50%, 3 days in culture, SRB; read-out: ED50, SK-BR-3 (ER−, HER2+)
Method: as §2, §3

[7] = system: ER+ human breast cancer (MCF-7 and ZR-75-1); assay: Comparison of potency and selectivity against ER+ breast cancer cell lines in vitro; type: cell-based; conditions: against ER+ cell lines
Method: as §2
as §1, with “Biological assay. All” for “All”, “cultures are” for “cultures were”, “96-well microtitre” for “96-well microtiter”, “dye. The mean ED50 is the concentration of agent that reduces cell growth by 50% under the experimental conditions and is the average from at least three independent determinations that were reproducible and statistically significant. […]” for “dye.”

[8] = system: KB (nasopharyngeal carcinoma); assay: In vitro anticancer assay (SRB), KB; type: cell-based, human; conditions: Homo sapiens, 72 h; concentration that reduces cell growth by 50%, 3 days in culture, SRB; read-out: ED50, KB
Method: as §2, §3

[9] = system: several human cancer cell lines; assay: Cytotoxic activity against several human tumor cell lines (panel, overall statements); type: cell-based; conditions: several human tumor cell lines, Table 4
Method: as §2
as §1, with “Biological assay. All” for “All”, “cultures are” for “cultures were”, “96-well microtitre” for “96-well microtiter”, “dye. […]” for “dye.”

[10] = Homo sapiens, concentration that reduces cell growth by 50%, 3 days in culture, SRB

IC50 [1] [µg/mL] | IC50 [2, 10] [µg/mL] | IC50 [4] [µg/mL] | melting point [°C] | IC50 [5] [µg/mL] | IC50 (SW620 (colon cancer)) [µg/mL] | IC50 [6] [µg/mL] | IC50 [8] [µg/mL] | Compound | ED50, HS 587-T (ER−) [3] [µg/mL] | times better activity than compound 2a and tamoxifen [7] [times] | overall cytotoxic activity (in words) [9] | inhibition at 20 µg/mL ([2]; Homo sapiens, MCF7, at 20 μg/mL (Table 4), read-out: Percent inhibition at the test concentration (bracketed value), MCF-7) [%] | ED50, MCF-7 (ER+) ([2]; concentration that reduces cell growth by 50%, 3 days in culture, SRB) [µg/mL] | ED50, MDA-MB-231 (ER−) [4] [µg/mL]
4 (≈ 16 µM) | 4 (≈ 16 µM) | 10.3 (≈ 41.2 µM) | 205 to 207 |  |  |  |  | Cc1coc2c1c(=O)oc1c3ccccc3ccc21 [Compound 2a, 17-Methyl-11,15-dioxa-cyclopenta[a]phenanthren-12-one] | 7.5 (≈ 30 µM) |  |  |  |  | 
0.18 (≈ 0.647 µM) | 0.45 (≈ 1.62 µM) | 10.3 (≈ 37 µM) | 145 to 147 | > 10 | > 10 | 0.1 (≈ 0.359 µM) | > 10 | CCc1cccc2c1ccc1c3occ(C)c3c(=O)oc21 [Compound 2c, 4-Ethyl-17-methyl-11,15-dioxa-cyclopenta[a]phenanthren-12-one] | 10 (≈ 35.9 µM) | 10 |  |  |  | 
8.6 (≈ 30.2 µM) | 5 (≈ 17.6 µM) |  | 220 to 221 | 8 (≈ 28.1 µM) | > 10 | 4.5 (≈ 15.8 µM) | > 10 | Cc1coc2c1c(=O)oc1c3ccccc3c(Cl)cc21 [Compound 2d, 6-Chloro-17-methyl-11,15-dioxa-cyclopenta[a]phenanthren-12-one] |  |  | did not show strong activity |  |  | 
> 10 | 5 (≈ 17.8 µM) |  | 203 to 205 | 9.5 (≈ 33.9 µM) | 9 (≈ 32.1 µM) | 8.6 (≈ 30.7 µM) | > 10 | COc1cc2c3occ(C)c3c(=O)oc2c2ccccc12 [Compound 2e, 6-Methoxy-17-methyl-11,15-dioxa-cyclopenta[a]phenanthren-12-one] |  |  | did not show strong activity |  |  | 
 | 12.5 (≈ 49.2 µM) | 3.8 (≈ 14.9 µM) | 203 to 205 |  |  |  |  | O=c1oc2c(ccc3ccccc32)c2c1C(O)CO2 (centres unmarked) [Compound 3a, 17-Hydroxy-16,17-dihydro-11,15-dioxa-cyclopenta[a]phenanthren-12-one] |  |  |  |  |  | 
> 10 | 8.3 (≈ 30.9 µM) |  |  | 3.2 (≈ 11.9 µM) | > 10 | 8 (≈ 29.8 µM) | > 10 | Cc1cccc2c1ccc1c3c(c(=O)oc12)C(O)CO3 (centres unmarked) [Compound 3b, 17-Hydroxy-4-methyl-16,17-dihydro-11,15-dioxa-cyclopenta[a]phenanthren-12-one] |  |  |  |  |  | 
 | 5 (≈ 17.7 µM) | 5 (≈ 17.7 µM) | 163 to 165 | 3 (≈ 10.6 µM) |  |  |  | CCc1cccc2c1ccc1c3c(c(=O)oc12)C(O)CO3 (centres unmarked) [Compound 3c, 4-Ethyl-17-hydroxy-16,17-dihydro-11,15-dioxa-cyclopenta[a]phenanthren-12-one] |  |  |  |  |  | 
> 10 | 5.6 (≈ 19.4 µM) |  | 150 | 7.8 (≈ 27 µM) | 4.2 (≈ 14.5 µM) | 8 (≈ 27.7 µM) | 9.5 (≈ 32.9 µM) | O=c1oc2c(cc(Cl)c3ccccc32)c2c1C(O)CO2 (centres unmarked) [Compound 3d, 6-Chloro-17-hydroxy-16,17-dihydro-11,15-dioxa-cyclopenta[a]phenanthren-12-one] |  |  |  |  |  | 
5.7 (≈ 20.1 µM) | 5.6 (≈ 19.7 µM) |  | 210 to 212 | 6.5 (≈ 22.9 µM) | > 10 | 9 (≈ 31.7 µM) | 6.8 (≈ 23.9 µM) | COc1cc2c3c(c(=O)oc2c2ccccc12)C(O)CO3 (centres unmarked) [Compound 3e, 17-Hydroxy-6-methoxy-16,17-dihydro-11,15-dioxa-cyclopenta[a]phenanthren-12-one] |  |  |  |  |  | 
 | > 20 | 10.5 (≈ 44.4 µM) | 198 to 200 |  |  |  |  | O=c1oc2c3ccccc3ccc2c2occc12 [Compound 4a, 11,15-Dioxa-cyclopenta[a]phenanthren-12-one] |  |  |  | 17 |  | 
> 10 | 5.5 (≈ 22 µM) |  | 220 to 222 | 8.3 (≈ 33.2 µM) | > 10 | 8.5 (≈ 34 µM) | > 10 | Cc1cccc2c1ccc1c3occc3c(=O)oc21 [Compound 4b, 4-Methyl-11,15-dioxa-cyclopenta[a]phenanthren-12-one] |  |  |  |  |  | 
 | > 10 | > 10 | 173 to 174 |  |  |  |  | CCc1cccc2c1ccc1c3occc3c(=O)oc21 [Compound 4c, 4-Ethyl-11,15-dioxa-cyclopenta[a]phenanthren-12-one] |  |  |  |  |  | 
> 10 | 7 (≈ 25.9 µM) |  | 150 | > 10 | > 10 | > 10 | > 10 | O=c1oc2c3ccccc3c(Cl)cc2c2occc12 [Compound 4d, 6-Chloro-11,15-dioxa-cyclopenta[a]phenanthren-12-one] |  |  |  |  |  | 
8.5 (≈ 31.9 µM) | 3.4 (≈ 12.8 µM) |  | 194 to 195 | 9.5 (≈ 35.7 µM) | 4 (≈ 15 µM) | 4 (≈ 15 µM) | 9.5 (≈ 35.7 µM) | COc1cc2c3occc3c(=O)oc2c2ccccc12 [Compound 4e, 6-Methoxy-11,15-dioxa-cyclopenta[a]phenanthren-12-one] |  |  |  |  |  | 
 |  |  |  |  |  |  |  | Cc1coc2c1C(=O)C(=O)c1c-2ccc2c(C)cccc12 [tanshinone I, reference compound] |  |  |  |  | 0.82 (≈ 2.97 µM) | 0.75 (≈ 2.71 µM)
 | 0.38 (≈ 1.29 µM) | 0.7 (≈ 2.38 µM) |  |  |  |  |  | Cc1coc2c1C(=O)C(=O)c1c-2ccc2c1CCCC2(C)C [tanshinone IIA, reference compound] |  |  |  |  |  | 

Compound | IC50 [1] [µg/mL] | IC50 [2, 10] [µg/mL] | IC50 [4] [µg/mL] | melting point [°C] | IC50 [5] [µg/mL] | IC50 (SW620 (colon cancer)) [µg/mL] | IC50 [6] [µg/mL] | IC50 [8] [µg/mL] | ED50, HS 587-T (ER−) [3] [µg/mL] | times better activity than compound 2a and tamoxifen [7] [times] | overall cytotoxic activity (in words) [9] | inhibition at 20 µg/mL ([2]; Homo sapiens, MCF7, at 20 μg/mL (Table 4), read-out: Percent inhibition at the test concentration (bracketed value), MCF-7) [%] | ED50, MCF-7 (ER+) ([2]; concentration that reduces cell growth by 50%, 3 days in culture, SRB) [µg/mL] | ED50, MDA-MB-231 (ER−) [4] [µg/mL]
C[C@H]1COC2=C1C(=O)C(=O)c1c2ccc2c1CCCC2(C)C [cryptotanshinone, reference compound] |  | 0.41 (≈ 1.38 µM) | 0.16 (≈ 0.54 µM) |  |  |  |  |  |  |  |  |  |  | 
